Results published in the supplement of paper PMC10307832.

Legend:
Assay in all cases: relative viability (nuclei count vs DMSO), 5 days (fraction); higher = more cells survive
Axitinib + Trametinib = compound: CNC(=O)c1ccccc1Sc1ccc2c(/C=C/c3ccccn3)n[nH]c2c1 [Axitinib] + CC(=O)Nc1cccc(-n2c(=O)n(C3CC3)c(=O)c3c(Nc4ccc(I)cc4F)n(C)c(=O)c(C)c32)c1 [Trametinib] (partner 0.02 µM)
Summary of the method: (§1)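 Lung cancer cell lines were pin-tool dosed in 1536-well plates on the day after seeding, with either a lone drug or a fixed anchor-drug dose plus five library-drug doses (not always all listed) in √10 steps. Nuclei were counted on 4× images after 5 days. Relative viability is the ratio of treated-well to vehicle-well nuclei counts, with each value a median of duplicate plates.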

Bemcentinib + Phenformin = compound: Nc1nc(Nc2ccc3c(c2)CC[C@@H](N2CCCC2)CC3)nn1-c1cc2c(nn1)-c1ccccc1CCC2 [Bemcentinib] + N=C(N)NC(=N)NCCc1ccccc1 [Phenformin] (partner 250 µM)
Summary of the method: as §1

[1] = compound: CC1=CC=C(C=C1)C(=O)CN2C3=C(CCCC3)SC2=N [Pifithrin_alpha] + CS(=O)(=O)N1CCN(Cc2cc3nc(-c4cccc5[nH]ncc45)nc(N4CCOCC4)c3s2)CC1 [Pictilisib] (partner 1 µM)
Summary of the method: as §1

Bemcentinib + Foretinib = compound: Nc1nc(Nc2ccc3c(c2)CC[C@@H](N2CCCC2)CC3)nn1-c1cc2c(nn1)-c1ccccc1CCC2 [Bemcentinib] + COc1cc2c(Oc3ccc(NC(=O)C4(C(=O)Nc5ccc(F)cc5)CC4)cc3F)ccnc2cc1OCCCN1CCOCC1 [Foretinib] (partner 0.25 µM)
Summary of the method: as §1

NCI-H650 gave a relative viability (Axitinib + Trametinib; first compound 0.005 µM) of 1.04, a relative viability (Axitinib + Trametinib; first compound 0.01581 µM) of 1 and a relative viability (Axitinib + Trametinib; first compound 0.05 µM) of 0.893. For the same cell line, the relative viability (Axitinib + Trametinib; first compound 0.1581 µM) was 0.869, the relative viability (Axitinib + Trametinib; first compound 0.5 µM) was 1.06 and the relative viability (Bemcentinib + Phenformin; first compound 0.04 µM) was 0.407. The relative viability (Bemcentinib + Phenformin; first compound 0.1265 µM) was 0.487, the relative viability (Bemcentinib + Phenformin; first compound 0.4 µM) was 0.484 and the relative viability (Bemcentinib + Phenformin; first compound 1.265 µM) was 0.429. The relative viability (Bemcentinib + Phenformin; first compound 4 µM) was 0.415, the relative viability ([1]; first compound 3.162 µM) was 0.91 and the relative viability ([1]; first compound 10 µM) was 0.873. For the same cell line, the relative viability ([1]; first compound 31.62 µM) was 0.58, the relative viability ([1]; first compound 100 µM) was 0.763 and the relative viability (Bemcentinib + Foretinib; first compound 0.04 µM) was 0.975. For the same cell line, the relative viability (Bemcentinib + Foretinib; first compound 0.1265 µM) was 1.16, the relative viability (Bemcentinib + Foretinib; first compound 0.4 µM) was 1.04 and the relative viability (Bemcentinib + Foretinib; first compound 1.265 µM) was 1.02. The relative viability (Bemcentinib + Foretinib; first compound 4 µM) was 1.05.
